In PubChem BioAssay (NCI):
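Results reflect a 48-hour exposure of cells in 96-well plates to compound at five concentrations. GI50: concentration for 50% inhibition of growth. Definition used: TGI = concentration required for complete inhibition of growth.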

Legend:
Test in all cases: NCI tumour cell line growth inhibition, 48 h
DU-145 prostate = system: DU-145 prostate
OVCAR-8 ovarian = system: OVCAR-8 ovarian
RPMI-8226 leukemia = system: RPMI-8226 leukemia
UO-31 renal = system: UO-31 renal
HCT-116 colon = system: HCT-116 colon
NCI-H522 lung = system: NCI-H522 lung
TK-10 renal = system: TK-10 renal
NCI-H23 lung = system: NCI-H23 lung
SN12C renal = system: SN12C renal
SF-268 CNS = system: SF-268 CNS
COLO 205 colon = system: COLO 205 colon
KM12 colon = system: KM12 colon
HS 578T breast = system: HS 578T breast
U251 CNS = system: U251 CNS
SK-MEL-5 melanoma = system: SK-MEL-5 melanoma
SW-620 colon = system: SW-620 colon
OVCAR-3 ovarian = system: OVCAR-3 ovarian
ACHN renal = system: ACHN renal
M14 melanoma = system: M14 melanoma
HCC-2998 colon = system: HCC-2998 colon
LOX IMVI melanoma = system: LOX IMVI melanoma
IGROV1 ovarian = system: IGROV1 ovarian
OVCAR-5 ovarian = system: OVCAR-5 ovarian
UACC-62 melanoma = system: UACC-62 melanoma
BT-549 breast = system: BT-549 breast
RXF 393 renal = system: RXF 393 renal
SK-MEL-28 melanoma = system: SK-MEL-28 melanoma

O=C(/C(=C\c1ccc([N+](=O)[O-])cc1)S(=O)Cc1ccc(F)cc1)c1ccc(F)cc1 (centres undefined)
GI50 (DU-145 prostate): 1.66 µM
TGI (DU-145 prostate): 3.06 µM
GI50 (OVCAR-8 ovarian): 2.17 µM
TGI (OVCAR-8 ovarian): 5.34 µM
GI50 (RPMI-8226 leukemia): 1.3 µM
TGI (RPMI-8226 leukemia): 4.28 µM
GI50 (UO-31 renal): 1.52 µM
TGI (UO-31 renal): 3.23 µM
GI50 (HCT-116 colon): 1.64 µM
TGI (HCT-116 colon): 3.07 µM
GI50 (NCI-H522 lung): 1.77 µM
TGI (NCI-H522 lung): 3.31 µM
GI50 (TK-10 renal): 2.31 µM
TGI (TK-10 renal): 7 µM
GI50 (NCI-H23 lung): 1.91 µM
TGI (NCI-H23 lung): 4.1 µM
GI50 (SN12C renal): 1.9 µM
TGI (SN12C renal): 3.99 µM
GI50 (SF-268 CNS): 2.11 µM
TGI (SF-268 CNS): 5.34 µM
GI50 (COLO 205 colon): 1.91 µM
TGI (COLO 205 colon): 3.63 µM
GI50 (KM12 colon): 2.22 µM
TGI (KM12 colon): 5.46 µM
GI50 (HS 578T breast): 3.3 µM
TGI (HS 578T breast): 75 µM
GI50 (U251 CNS): 1.72 µM
TGI (U251 CNS): 3.44 µM
GI50 (SK-MEL-5 melanoma): 1.8 µM
TGI (SK-MEL-5 melanoma): 3.5 µM
GI50 (SW-620 colon): 1.58 µM
TGI (SW-620 colon): 3.13 µM
GI50 (OVCAR-3 ovarian): 1.63 µM
TGI (OVCAR-3 ovarian): 3.01 µM
GI50 (ACHN renal): 2.33 µM
TGI (ACHN renal): 6.51 µM
GI50 (M14 melanoma): 1.79 µM
TGI (M14 melanoma): 3.76 µM
GI50 (HCC-2998 colon): 1.69 µM
TGI (HCC-2998 colon): 3.22 µM
GI50 (LOX IMVI melanoma): 1.54 µM
TGI (LOX IMVI melanoma): 3.05 µM
GI50 (IGROV1 ovarian): 1.69 µM
TGI (IGROV1 ovarian): 3.49 µM
GI50 (OVCAR-5 ovarian): 1.83 µM
TGI (OVCAR-5 ovarian): 3.67 µM
GI50 (UACC-62 melanoma): 1.71 µM
TGI (UACC-62 melanoma): 3.25 µM
GI50 (BT-549 breast): 1.96 µM
TGI (BT-549 breast): 3.88 µM
GI50 (RXF 393 renal): 1.78 µM
TGI (RXF 393 renal): 3.38 µM
GI50 (SK-MEL-28 melanoma): 1.8 µM
TGI (SK-MEL-28 melanoma): 3.66 µM
